# Where a SMILES comes first, the peptide text is derived from it. Bridges are numbered along the chain shown (N, C = ends). [ ]: non-standard residue; d: D form. The star is where a group is joined. DOTA = O=C(O)CN1CCN(CC(=O)O)CCN(CC(=O)*)CCN(CC(=O)O)CC1; 1Nal = N[C@@H](Cc1cccc2ccccc12)C(=O)O; Thr(ol) = C[C@@H](O)[C@H](N)CO
# Assays:
# AR42J xenograft = assay type: in vivo, mice
# Experimental: All animal experiments were planned and performed following the national legislation by the Animal Experiments Inspectorate in Denmark. Male SCID (severe combined immunodeficiency) mice (bred in-house, age 9–12 weeks) had access to water and chow ad libitum. Anesthesia with approximately 2% isoflurane in 100% oxygen was applied and the mice were inoculated subcutaneously in the left shoulder with 1 × 10^6 AR42J cells 12–15 days before the experiment (tumor weight 364 ± 58 mg). For biodistribution, the AR42J xenografted mice were injected in the tail vein with [^68Ga]Ga-NOTA-NOC (50.2 ± 5 pmol, 627 ± 116 kBq, n = 4), [^68Ga]Ga-DOTA-NOC (42.5 ± 6 pmol, 509 ± 24 kBq, n = 3), or [^18F]AlF-NOTA-NOC (47.0 ± 10 pmol, 1017 ± 279 kBq, n = 3 for each time point). After 1 or 3 h, the mice were sacrificed and the organs were collected and weighed. The organ radioactivities were quantified in an Atomlab 950 well spectrometer which was cross calibrated to a high-purity germanium detector. The tissue uptake of injected radioactivity was determined as a percentage of the applied total injected activity per gram, %IA/g.
# GraphPad Prism 6.07 was applied for statistical analysis and data fitting. One-way ANOVA and Bonferroni correction for multiple comparisons were applied for each organ. P values considered statistically significant were * p ≤ 0.05, ** p ≤ 0.01, *** p ≤ 0.001, and **** p ≤ 0.0001. The Student’s two-tailed t-test was applied for exploration statistics within a single organ-to-tumor comparison for one time point. Data are presented as the mean ± SEM.
# [1] = Determination of LogP (1-octanol/Dulbecco's PBS partition); assay type: physicochemical
# Experimental: Radiolabeled peptide (5 µL, 3–5 MBq) was added to Dulbecco’s PBS (495 µL) along with 1-Octanol (500 µL) in an Eppendorf tube. The tubes were vortexed for 5 min and centrifuged to separate phases. A volume of 10 µL of each phase was transferred to new Eppendorf tubes. The fractions were counted in an well counter (Atomlab 950) and LogP were calculated [[…]].
structure (smiles),measurement,setting,value
"C[C@@H](O)[C@@H]1NC(=O)[C@H](CCCCN)NC(=O)[C@@H](Cc2c[nH]c3ccccc23)NC(=O)[C@H](Cc2cccc3ccccc23)NC(=O)[C@@H](NC(=O)[C@@H](Cc2ccccc2)NC(=O)CN2CCN(CC(=O)O)CCN(CC(=O)O)CCN(CC(=O)O)CC2)CSSC[C@@H](C(=O)N[C@H](CO)[C@@H](C)O)NC1=O [[^68Ga]Ga-DOTA-NOC, metal not drawn, reference compound] ({DOTA}-[dF]C[1Nal][dW]KTC[Thr(ol)]; disulfide 2-7 (inferred))","tumor-to-blood ratio, 1 h p.i.",AR42J xenograft; AR42J xenograft mice,35
same,"tumor-to-liver ratio, 1 h p.i.",AR42J xenograft; AR42J xenograft mice,3.7
same,tumor uptake at 1 h p.i.,"AR42J xenograft; male SCID mice, subcutaneous AR42J xenograft, tail vein injection app. 45 pmol, n = 3-4, mean ± SEM",26.4 ± 10.8 % ID/g
same,"partition coefficient, LogP",[1],−1.42
